Measurements as given in patent publication US8598132B2, “Glycosylated indolocarbazoles, method for obtaining same and uses thereof” (Universidad de Oviedo, priority 2008, dated 2013).

Assays:
A549 (lung) = experiment: SRB anti-tumour (growth inhibition) assay, A549; type: cell-based; conditions: Homo sapiens, 48 h exposure, read-out: GI50 (concentration inhibiting 50% of cell growth)
Description: The compounds generated were tested against a series of cell lines from tumours. It quantitatively determined the cell growth and the viability, using a colorimetric assay type, using the reaction with sulforhodamine B (SRB), according to the technique described by Faircloth et al. (Journal of Tissue and Culture Methods 1988, 11, 201-205).
96-well microtitre plates are inoculated with cells (5×10^3 cells per well) in aliquots of 195 μl of medium, incubating them during 18 h, in a medium without added compound, to allow the cells to adhere to the surface. Next, the compounds to be tested are added, in samples of 5 μl, at a range of concentrations of 10 to 10^−8 μg/ml, dissolved in DMSO/EtOH (0.2% in PS buffer). After 48 h exposure, the anti-tumour effect is measured using the Sulforhodamine B (SRB) technique: the cells are fixed adding 50 μl of cold […] (50%) (w/v) and it is incubated for 60 min. at 4° C. The plates are washed with deionized water and dried. 100 μl of SRB solution (0.4% w/v in 1% acetic acid) to each well and it is incubated during 10 min. at ambient temperature. The non-bound SRB is eliminated, washing with 1% acetic acid. The plates are air dried and the bound colorant is dissolved with Tris buffer. The optical densities are read in an automatic plate spectrophotometer reader at a wavelength of 490 nm.
For the compounds of formula (III), (IV), (V), (VI), (VII), (VIII), (IX) and the compounds of formula (XII), (XIII), (XIV), (XV), (XVI) and (XVIII).

FGFR1 = molecular target: T1, FGFR1 (Homo sapiens, UniProt P11362); experiment: LabChip (Caliper) kinase assay, FGFR1; type: biochemical; conditions: for inhibition at 0.01 µM: compound at 10 nM; for inhibition at 0.01 µM / inhibition at 0.1 µM: read-out: remaining kinase activity (in %) / percentage of inhibition; for inhibition at 0.1 µM: compound at 100 nM; for IC50: ATP at Km, read-out: CI50 (the source's name)
T1 construct: purchased Upstate
T1 sequence (P11362 22-822, species assumed): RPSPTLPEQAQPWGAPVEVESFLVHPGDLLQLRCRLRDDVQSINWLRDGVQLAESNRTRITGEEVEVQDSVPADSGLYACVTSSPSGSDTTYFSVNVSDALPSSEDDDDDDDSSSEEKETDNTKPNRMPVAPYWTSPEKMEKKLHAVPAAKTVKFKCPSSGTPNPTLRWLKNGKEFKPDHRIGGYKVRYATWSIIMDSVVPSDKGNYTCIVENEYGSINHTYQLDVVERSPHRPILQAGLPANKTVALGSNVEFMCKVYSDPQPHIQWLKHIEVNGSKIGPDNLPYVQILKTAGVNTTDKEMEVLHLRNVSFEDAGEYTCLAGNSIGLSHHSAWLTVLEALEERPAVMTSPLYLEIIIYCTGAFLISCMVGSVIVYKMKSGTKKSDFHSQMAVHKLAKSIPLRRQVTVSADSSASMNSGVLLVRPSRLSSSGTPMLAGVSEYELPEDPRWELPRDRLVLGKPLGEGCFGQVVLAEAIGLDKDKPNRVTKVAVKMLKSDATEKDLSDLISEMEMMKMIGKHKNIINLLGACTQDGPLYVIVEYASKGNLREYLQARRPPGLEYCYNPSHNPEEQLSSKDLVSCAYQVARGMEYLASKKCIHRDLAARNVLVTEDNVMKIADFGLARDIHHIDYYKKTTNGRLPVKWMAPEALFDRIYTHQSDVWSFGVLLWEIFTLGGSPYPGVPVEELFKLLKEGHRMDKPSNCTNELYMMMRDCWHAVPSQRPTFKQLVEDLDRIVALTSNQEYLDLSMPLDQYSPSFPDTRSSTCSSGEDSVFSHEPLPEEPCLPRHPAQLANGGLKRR
Description: (§1) The analysis of kinase activity described here was performed using LabChip (Caliper Life Sciences), specifically the Caliper LC3000 and the EZ Reader II instruments.
(§2) The kinase assay used measures the conversion of a fluorescent peptide (substrate) to a phosphorylated product. The reaction mixture, in a microplate well, is introduced by a capillary in a chip where the non-phosphorylated substrate and the phosphorylated product are separated by […]. The intensity of the fluorescent signal over time is related to the reaction progress. The phosphorylated product migrates quicker than the non-phosphorylated substrate and the signals of the two forms of the peptide appear as differentiated peaks. The Caliper determines the peak height and calculates the ratio of product to the peak sum (P/(P+S)). This value is used to compare wells with compounds and wells with controls and thus determine the % of inhibition for the given product.
(§3) The followings kinases were used for the enzymatic inhibition studies, between brackets the value of the Michaelis-Menten constant, Km, of the ATP (Adenosine triphosphate) for each kinase, in μM: obtained from Carna Biosciences: MAPKAPK2 (4.6), AurA (3.6), AurB (5), PKCζ (3.8), RSK1 (23.3), PRAK (5), Erk1 (33.4), PKD2 (32.1), CK1d (16.3), CHK1 (33), ABL (61.7), FYN (36), LYNa (17), CHK2 (57.8), MET (79.5), LCK (28.5), SRC (38), GSK3β (7.3), Erk2 (62.1), PKACα (1.7), AKT2 (186.1), INSR (871.8), p38a (396.5), AKT1(48), MSK1 (21.2), PKCβ2 (84.8), ROCK2 (3.3), PIM2 (4.9), AMPK (38.6), KDR (164.8), IRAK4 (196.5), SGK1 (121.8), SYK (33.5); obtained from Invitrogen: CDK2 (57.6), BTK (123), HGK (80); obtained from Upstate: MST2 (36.6), PKGα (16), PAK2 (1.9), IGF1R (320), FGFR1 (171), MARK1 (33), CAMK2δ (22.4), c-TAK1 (66), DYRK1a (18.1), CaMK4 (3.9), FLT3 (350), c-Raf (6.2), P70S6K (95).
(§4) The compounds were dissolved in 100% DMSO and were diluted at 25 times the final concentration desired for the assay. In the case of the determination of Cl50, serial dilutions were made to reach eight concentrations and give rise to the inhibition curve. 1 μL of each concentration is transferred, in duplicate to a 384-well microplate. 12 μL of enzymatic buffer is added to each well containing purified kinase (several suppliers as indicated above), 100 mM HEPES, pH 7.5, 1 mM DTT (Calbiochem), 0.002% Brij-35 (Sigma) and also in presence of 10 mM MgCl2 as cofactor, except for INSR and IRAK4 wherein 10 mM MnCl2 is used instead of MgCl2. For the kinases CAMK26 and CAMK4, 1 mM CaCl2 and 6.7 μg/mL of calmodulin are also added. For KDR kinase, 0.05% of the CHAPSO detergent is added. For the c-Raf kinase, 10 mM MnCl2 is added. For PKCβ2 0.02 μg/mL of PS/PMA is added. For PKGα se 10 μM of cGMP (cyclic guanosine monophosphate) is added. The compound and the enzyme are left for 15 minutes preincubation and, then, the following are added to each well: 12 μL of peptide buffer/ATP containing 100 mM HEPES, pH 7.5, 1.5 μM peptide marker with fluorescein (specific for the corresponding kinase), ATP (at concentration KM), and 0.002% Brij-35 to start the reaction. Generally, the reactions are incubated for 1-1.5 h at ambient temperature to obtain an adequate conversion (15-40%) of the peptide to the phosphorylated product. The reactions were ended by the addition of 45 μL of buffer containing 0 mM EDTA. The microplates were read by the LabChip 3000 using a 12-channel LabChip. The P/(P+S) values were obtained as described above and the CI50 curves were generated using XIfit.
(§5) Table 9a has the 0150 data obtained in pairs of compound-kinase selected from the compounds of formula (VII), (VIII), (IX), (XVI), (XVII) and (XVIII) after taking inhibition measurements at 100 nM and 10 nM. Those couples that provide >70% of inhibition at 10 nM were consider for measuring its IC50. […]

KDR = molecular target: T2, KDR (Homo sapiens, UniProt P35968); experiment: LabChip (Caliper) kinase assay, KDR; type: biochemical; conditions: for inhibition at 0.01 µM: compound at 10 nM; for inhibition at 0.01 µM / inhibition at 0.1 µM: read-out: remaining kinase activity (in %) / percentage of inhibition; for inhibition at 0.1 µM: compound at 100 nM; for IC50: ATP at Km, read-out: CI50 (the source's name)
T2 construct: purchased Carna Biosciences
T2 sequence (P35968 20-1356): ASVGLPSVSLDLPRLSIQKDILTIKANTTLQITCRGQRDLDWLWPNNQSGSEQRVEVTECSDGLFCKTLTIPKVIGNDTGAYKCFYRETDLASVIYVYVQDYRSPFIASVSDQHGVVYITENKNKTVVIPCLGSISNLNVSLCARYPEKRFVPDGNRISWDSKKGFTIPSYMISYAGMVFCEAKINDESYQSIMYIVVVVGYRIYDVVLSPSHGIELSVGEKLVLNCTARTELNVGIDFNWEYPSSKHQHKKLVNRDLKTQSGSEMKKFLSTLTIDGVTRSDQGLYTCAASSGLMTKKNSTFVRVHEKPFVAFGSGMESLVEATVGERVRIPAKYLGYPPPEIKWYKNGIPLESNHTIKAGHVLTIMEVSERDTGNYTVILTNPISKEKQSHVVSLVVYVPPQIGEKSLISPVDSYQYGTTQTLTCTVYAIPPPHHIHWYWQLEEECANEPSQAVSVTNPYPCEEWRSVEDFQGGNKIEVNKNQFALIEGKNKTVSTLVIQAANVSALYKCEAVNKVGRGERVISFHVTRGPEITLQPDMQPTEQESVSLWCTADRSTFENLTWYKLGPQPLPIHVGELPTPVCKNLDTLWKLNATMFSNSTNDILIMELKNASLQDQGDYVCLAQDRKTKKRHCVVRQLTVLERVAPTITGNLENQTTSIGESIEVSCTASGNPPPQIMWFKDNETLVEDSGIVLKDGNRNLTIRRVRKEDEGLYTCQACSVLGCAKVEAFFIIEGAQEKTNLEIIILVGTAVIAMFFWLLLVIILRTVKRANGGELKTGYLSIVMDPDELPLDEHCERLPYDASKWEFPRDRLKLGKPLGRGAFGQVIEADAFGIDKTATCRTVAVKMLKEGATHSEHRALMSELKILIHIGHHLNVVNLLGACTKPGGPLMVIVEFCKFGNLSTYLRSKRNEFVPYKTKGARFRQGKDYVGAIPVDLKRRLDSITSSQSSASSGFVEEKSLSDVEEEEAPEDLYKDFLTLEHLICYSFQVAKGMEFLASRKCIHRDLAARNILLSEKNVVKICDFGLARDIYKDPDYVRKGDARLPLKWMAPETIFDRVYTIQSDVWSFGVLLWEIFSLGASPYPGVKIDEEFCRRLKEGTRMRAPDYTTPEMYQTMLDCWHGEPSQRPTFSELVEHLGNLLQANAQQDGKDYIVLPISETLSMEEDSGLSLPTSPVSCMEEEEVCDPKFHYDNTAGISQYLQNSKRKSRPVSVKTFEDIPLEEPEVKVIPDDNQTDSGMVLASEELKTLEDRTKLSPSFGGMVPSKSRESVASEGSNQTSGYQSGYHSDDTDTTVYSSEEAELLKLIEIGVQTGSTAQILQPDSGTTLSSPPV
Description: as §1, §2, §3, §4, §5

Compound	GI50 (A549 (lung))	inhibition at 0.01 µM (FGFR1)	inhibition at 0.1 µM (FGFR1)	inhibition at 0.01 µM (KDR)	inhibition at 0.1 µM (KDR)	IC50 (FGFR1)	IC50 (KDR)
C[C@@H]1O[C@@H](n2c3ccccc3c3c4c(c5c6ccccc6[nH]c5c32)C(=O)NC4=O)[C@H](O)[C@H](O)[C@H]1O [formula (III), N^13-1′-β-L-rhamnosylarcyriaflavin]	4180 nM	3%	4%	-7%	21%		
C[C@@H]1O[C@@H](n2c3ccccc3c3c4c(c5c6ccccc6[nH]c5c32)C(=O)NC4=O)C[C@H](O)[C@H]1O [formula (IV), N^13-1′-β-L-olivosylarcyriaflavin]	8790 nM	3%	21%	21%	68%		
C[C@]12O[C@H](C[C@@H](O)[C@H]1O)n1c3ccccc3c3c4c(c5c6ccccc6n2c5c31)C(=O)NC4=O [formula (IX), N^12-5′(S)-N^13-1′-(R)-L-digitoxosylarcyriaflavin]	5510 nM					> 10 nM	> 10 nM
C[C@@H]1O[C@@H](n2c3ccccc3c3c4c(c5c6ccccc6[nH]c5c32)C(=O)NC4=O)C[C@@H](O)[C@H]1O [formula (V), N^13-1′-β-L-digitoxosylarcyriaflavin]	4410 nM	7%	34%	28%	63%		
C[C@H]1O[C@@H](n2c3ccccc3c3c4c(c5c6ccccc6[nH]c5c32)C(=O)NC4=O)C[C@@H](O)[C@@H]1O [formula (VI), N^13-1′-β-D-olivosylarcyriaflavin]	2210 nM	1%	25%	2%	40%		
C[C@]12O[C@H]([C@H](O)[C@H](O)[C@H]1O)n1c3ccccc3c3c4c(c5c6ccccc6n2c5c31)C(=O)NC4=O [formula (VII), N^12-5′(S)-N^13-1′-(R)-L-rhamnosylarcyriaflavin]	2040 nM					8.9 nM	3.7 nM
C[C@]12O[C@H](C[C@H](O)[C@H]1O)n1c3ccccc3c3c4c(c5c6ccccc6n2c5c31)C(=O)NC4=O [formula (VIII), N^12-5′(S)-N^13-1′-(R)-L-olivosylarcyriaflavin]	5730 nM						0.55 nM
C[C@@H]1O[C@@H](n2c3ccccc3c3c4c(c5c6ccccc6[nH]c5c32)CNC4=O)[C@H](O)[C@H](O)[C@H]1O [formula (XII), N^13-1′-β-L-rhamnosyl-k252c]	2840 nM	1%	5%	-1%	6%		
C[C@@H]1O[C@@H](n2c3ccccc3c3c4c(c5c6ccccc6[nH]c5c32)CNC4=O)C[C@H](O)[C@H]1O [formula (XIII), N^13-1′-β-L-olivosyl-k252c]	1560 nM	-1%	7%	7%	48%		
C[C@@H]1O[C@@H](n2c3ccccc3c3c4c(c5c6ccccc6[nH]c5c32)CNC4=O)C[C@@H](O)[C@H]1O [formula (XIV), N^13-1′-β-L-digitoxosyl-k252c]	3400 nM	1%	5%	1%	16%		
C[C@H]1O[C@@H](n2c3ccccc3c3c4c(c5c6ccccc6[nH]c5c32)CNC4=O)C[C@@H](O)[C@@H]1O [formula (XV), N^13-1′-β-D-olivosyl-k252c]	4980 nM	-2%	7%	-4%	18%		
C[C@]12O[C@H]([C@H](O)[C@H](O)[C@H]1O)n1c3ccccc3c3c4c(c5c6ccccc6n2c5c31)CNC4=O [formula (XVI), N^12-5′(S)-N^13-1′-(R)-L-rhamnosyl-k252c]	610 nM						
C[C@]12O[C@H](C[C@H](O)[C@H]1O)n1c3ccccc3c3c4c(c5c6ccccc6n2c5c31)CNC4=O [formula (XVII), N^12-5′(S)-N^13-1′-(R)-L-olivosyl-k252c]	1020 nM					> 10 nM	
C[C@]12O[C@H](C[C@@H](O)[C@H]1O)n1c3ccccc3c3c4c(c5c6ccccc6n2c5c31)CNC4=O [formula (XVIII), N^12-5′(S)-N^13-1′-(R)-L-digitoxosyl-k252c]	1960 nM					> 100 nM	> 10 nM
